Some test systems named below: SK-MEL-5 melanoma; MDA-MB-435; MALME-3M melanoma; A549 NSCLC; IGROV1 ovarian; SNB-75 CNS; COLO 205 colon; NCI-H226 lung; EKVX NSCLC; NCI-H522 lung.
Test in all cases: NCI-60 cell line screen, 48 h

Several values for one entry are separate records, joined by “and”; a condition that tells them apart may be missing. Identical values can stand only once.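 Protocol summary: plate cells (96-well), add compound at 5 concentrations, incubate 48 h, interpolate endpoints linearly. At the GI50, growth is halved. The concentration for full growth arrest is given as TGI.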 A value given as a limit tells only on which side of the number the result lay.

In the case of `COc1ccc(/C=C\c2cc(OC)c(OC)c(OC)c2)c(O)c1O`, the GI50 is below 0.015 µM in the experiment on SK-MEL-5 melanoma; 0.0754 µM in the experiment with A549 NSCLC; 0.212 µM with IGROV1 ovarian; 2.36 µM in the experiment with SNB-75 CNS; 0.297 µM and 0.05 µM with NCI-H226 lung; 3.76 µM with EKVX NSCLC. In addition, the TGI in the experiment on MDA-MB-435 is 0.0163 µM; in the experiment on MALME-3M melanoma it was 27.1 µM and 129 µM; with A549 NSCLC, > 70.1 µM and 88.7 µM; with IGROV1 ovarian it was 20.6 µM and 54.2 µM; in the experiment on SNB-75 CNS, 20.7 µM and 48.2 µM; in the experiment on COLO 205 colon, 30.1 µM and 90.2 µM. Moreover, the TGI with NCI-H226 lung is 1.69 µM and 1.62 µM; in the experiment on EKVX NSCLC, 70.1 µM and 96.1 µM; in the experiment on NCI-H522 lung, 0.262 µM and 0.823 µM.
With `CC1CC(C)C2=NOS3=C2C1=NO3` (stereo unspecified), the TGI with SK-MEL-5 melanoma, with MDA-MB-435, in the experiment on MALME-3M melanoma, with A549 NSCLC, in the experiment on IGROV1 ovarian and with SNB-75 CNS was above 100 µM in each case. Moreover, the TGI with COLO 205 colon, in the experiment on NCI-H226 lung, with EKVX NSCLC and in the experiment on NCI-H522 lung was above 100 µM in each case.
For `O=c1c(-c2ccc(O)cc2)coc2cc(OC3OC(CO)C(O)C(O)C3O)cc(O)c12` (stereo unspecified), the GI50 in the experiment with SK-MEL-5 melanoma is above 100 µM; with MDA-MB-435, above 100 µM; with MALME-3M melanoma, above 100 µM; with A549 NSCLC, above 10 µM; in the experiment on IGROV1 ovarian it was above 100 µM; in the experiment on SNB-75 CNS, above 10 µM. Also, the GI50 in the experiment with COLO 205 colon was above 100 µM. The TGI in the experiment on SK-MEL-5 melanoma, in the experiment with MDA-MB-435, with MALME-3M melanoma, in the experiment with A549 NSCLC, in the experiment with IGROV1 ovarian and with SNB-75 CNS was above 100 µM in each case. Moreover, the TGI in the experiment with COLO 205 colon, with NCI-H226 lung, with EKVX NSCLC and in the experiment on NCI-H522 lung was above 100 µM each time.
On to `O=C1C(=O)N(c2cccc(C(F)(F)F)c2)C(=O)C(=O)C1c1nc2ccccc2s1`, for which the TGI in the experiment on SK-MEL-5 melanoma, with MDA-MB-435, in the experiment on MALME-3M melanoma, with A549 NSCLC, in the experiment with IGROV1 ovarian and with SNB-75 CNS was above 100 µM each time. In addition, the TGI in the experiment with COLO 205 colon, in the experiment on NCI-H226 lung, with EKVX NSCLC and in the experiment with NCI-H522 lung was above 100 µM each time.
In the case of `C1CCN2CC3CCCN4CCCC(C2C1)C34` (stereo unspecified), the TGI in the experiment with SK-MEL-5 melanoma, with MDA-MB-435, with MALME-3M melanoma, with A549 NSCLC, with IGROV1 ovarian and with SNB-75 CNS was above 100 µM throughout. In addition, the TGI in the experiment with COLO 205 colon, in the experiment with NCI-H226 lung, in the experiment on EKVX NSCLC and in the experiment with NCI-H522 lung was above 100 µM in each case.
Regarding `COc1ccc2c(c1)C(=O)c1c-2n(CCCN)c(=O)c2cc(OC)c(OC)cc12`, the GI50 in the experiment on SK-MEL-5 melanoma is 0.283 µM; with MDA-MB-435 it was 1.33 µM; in the experiment with MALME-3M melanoma, 1.14 µM; in the experiment on A549 NSCLC, 0.0267 µM; in the experiment with IGROV1 ovarian it was 0.154 µM; in the experiment on SNB-75 CNS, 1.16 µM. The GI50 in the experiment on EKVX NSCLC is 1.83 µM; in the experiment with NCI-H522 lung it was below 0.01 µM. The TGI in the experiment on SK-MEL-5 melanoma was 1.93 µM; with MDA-MB-435, 2.86 µM; in the experiment on MALME-3M melanoma it was 3 µM; in the experiment with A549 NSCLC, 0.182 µM; in the experiment with IGROV1 ovarian it was 0.976 µM; with SNB-75 CNS, 2.55 µM. For the same molecule, the TGI in the experiment with EKVX NSCLC was 3.67 µM; with NCI-H522 lung, 1.03 µM.
For the molecule `Nc1nc(N)c(N=Nc2ccc(C(=O)O)c(O)c2)c(N)n1`, the TGI in the experiment on SK-MEL-5 melanoma, with MDA-MB-435, in the experiment on MALME-3M melanoma, in the experiment on A549 NSCLC, in the experiment with IGROV1 ovarian and in the experiment on SNB-75 CNS was above 100 µM in each case. The TGI in the experiment with COLO 205 colon, in the experiment on NCI-H226 lung, with EKVX NSCLC and with NCI-H522 lung was above 100 µM throughout.
As to `O=S(=O)(Nc1ccc2ccccc2c1)c1ccc(-c2cnc(C3CC3)o2)cc1`, the GI50 in the experiment on SK-MEL-5 melanoma is 0.829 µM; with MDA-MB-435 it was 0.214 µM; in the experiment on MALME-3M melanoma, 0.999 µM; in the experiment with A549 NSCLC, 1.74 µM; in the experiment on IGROV1 ovarian, 1.08 µM; in the experiment on SNB-75 CNS, 0.616 µM. Further, the GI50 in the experiment on COLO 205 colon is 1.79 µM; in the experiment on NCI-H226 lung, 3.99 µM; in the experiment with EKVX NSCLC, 2.76 µM; in the experiment on NCI-H522 lung, 0.766 µM. Further, the TGI in the experiment with SK-MEL-5 melanoma is 12.7 µM; in the experiment on MDA-MB-435, 0.598 µM; in the experiment with MALME-3M melanoma, 24 µM; in the experiment with A549 NSCLC, above 100 µM; with IGROV1 ovarian it was 14 µM; in the experiment on SNB-75 CNS, 6.07 µM. Moreover, the TGI in the experiment with COLO 205 colon came out at 9.22 µM; in the experiment on NCI-H226 lung, 20.4 µM; in the experiment with EKVX NSCLC, 59.9 µM; in the experiment with NCI-H522 lung it was 14.5 µM.
`CC(C)CCC(=O)[C@@H](C)[C@H]1[C@@H](OC2OCC(O)C(O)C2NS(C)(=O)=O)C[C@H]2[C@@H]3CC=C4C[C@@H](O)CC[C@]4(C)[C@H]3CC[C@]12C` (stereo partly specified): the GI50 with SK-MEL-5 melanoma was 1.26 µM; in the experiment with MDA-MB-435, 0.88 µM; with MALME-3M melanoma it was 0.91 µM; in the experiment with A549 NSCLC it was 3.55 µM; with IGROV1 ovarian it was 2.22 µM; with SNB-75 CNS, 0.571 µM. For the same molecule, the results for the GI50 with COLO 205 colon, in the experiment on EKVX NSCLC and in the experiment with NCI-H522 lung were 1.42 µM, 1.46 µM and 5.05 µM, respectively. Besides, the TGI in the experiment on SK-MEL-5 melanoma is 4.51 µM; with MDA-MB-435, 2.16 µM; in the experiment with MALME-3M melanoma it was 4.29 µM; in the experiment on A549 NSCLC, 11.5 µM; with IGROV1 ovarian it was above 40 µM; with SNB-75 CNS, 9.58 µM. Moreover, the figures for the TGI in the experiment on COLO 205 colon, in the experiment with EKVX NSCLC and with NCI-H522 lung were 5.92 µM, 8.85 µM and 12.5 µM, respectively.
On to `COc1cc(/C=C\c2cc(/C=C\c3ccc(O)c(OC)c3)n(C(=O)CNc3ccc(Cl)cc3)n2)ccc1O`, for which the GI50 was 3.24 µM with SK-MEL-5 melanoma; 2.52 µM with MDA-MB-435; 1.6 µM with MALME-3M melanoma; 3.94 µM with A549 NSCLC; 2.84 µM in the experiment with IGROV1 ovarian; 2.84 µM in the experiment on SNB-75 CNS. Besides, the GI50 in the experiment on COLO 205 colon was 4.87 µM; in the experiment on NCI-H226 lung it was 4.39 µM; in the experiment on EKVX NSCLC, 3.48 µM; in the experiment on NCI-H522 lung it was 1.51 µM. In addition, the TGI in the experiment with SK-MEL-5 melanoma was 11.3 µM; with MDA-MB-435 it was 23.4 µM; in the experiment on MALME-3M melanoma, 12 µM; in the experiment with A549 NSCLC, 16.5 µM; in the experiment with IGROV1 ovarian it was 14.3 µM; in the experiment on SNB-75 CNS, 13 µM. The TGI was determined as 18.3 µM with COLO 205 colon, 21.6 µM with NCI-H226 lung, 14.5 µM in the experiment with EKVX NSCLC and 5.06 µM in the experiment with NCI-H522 lung.
Take `COc1cc2ncn(-c3cc(OCc4ccccc4C(F)(F)F)c(C(C)=O)s3)c2cc1OC`: the GI50 in the experiment with SK-MEL-5 melanoma is above 25 µM; in the experiment on MDA-MB-435, 17.6 µM; with MALME-3M melanoma, above 16.8 µM; in the experiment on A549 NSCLC, above 25 µM; in the experiment with IGROV1 ovarian it was above 25 µM; with SNB-75 CNS it was 19 µM. Besides, the GI50 in the experiment on COLO 205 colon, with NCI-H226 lung, in the experiment on EKVX NSCLC and in the experiment with NCI-H522 lung was above 25 µM in each case. Moreover, the TGI in the experiment with SK-MEL-5 melanoma, with MDA-MB-435, in the experiment on MALME-3M melanoma, in the experiment on A549 NSCLC, in the experiment with IGROV1 ovarian and with SNB-75 CNS was above 25 µM throughout. The TGI in the experiment on COLO 205 colon, in the experiment on NCI-H226 lung, with EKVX NSCLC and in the experiment with NCI-H522 lung was above 25 µM in each case.
Regarding `COC(=O)C(=O)C(C(=O)C(=O)Nc1ccc(C)cc1)c1nc2ccc(C(=O)c3ccccc3)cc2[nH]c1=O` (stereo unspecified), the TGI in the experiment on SK-MEL-5 melanoma, in the experiment with MDA-MB-435, in the experiment with MALME-3M melanoma, in the experiment on A549 NSCLC, with IGROV1 ovarian and with SNB-75 CNS was above 100 µM in each case. Also, the TGI in the experiment with NCI-H226 lung, in the experiment on EKVX NSCLC and with NCI-H522 lung was above 100 µM throughout.
On to `C=C1CCC2C3(C)COC(c4ccc(Cl)cc4)OC3CCC2(C)C1/C=C/C1=CCOC1=O` (stereo unspecified), for which the GI50 in the experiment on SK-MEL-5 melanoma was 1.88 µM; with MDA-MB-435, 4.19 µM; in the experiment with MALME-3M melanoma, 11.3 µM; in the experiment with A549 NSCLC, 2.37 µM; in the experiment with IGROV1 ovarian, 50 µM; in the experiment on SNB-75 CNS, 12.1 µM. Besides, the results for the GI50 in the experiment with NCI-H226 lung, in the experiment on EKVX NSCLC and in the experiment on NCI-H522 lung were 7.06 µM, 0.751 µM and 1.11 µM, respectively. In addition, the TGI with SK-MEL-5 melanoma was 31.1 µM; with MDA-MB-435 it was above 100 µM; in the experiment on MALME-3M melanoma it was 71.4 µM; in the experiment with A549 NSCLC, 32.5 µM; in the experiment on IGROV1 ovarian, above 100 µM; with SNB-75 CNS, 41.5 µM. Moreover, the TGI is above 100 µM in the experiment with NCI-H226 lung, 29.8 µM in the experiment on EKVX NSCLC and 36.7 µM with NCI-H522 lung.
In the case of `CC1CCc2c(c(CC3CC(=O)NC(=O)C3)nn2-c2ccccc2)C1` (stereo unspecified), the TGI in the experiment on SK-MEL-5 melanoma, in the experiment on MDA-MB-435, in the experiment on MALME-3M melanoma, in the experiment on A549 NSCLC, in the experiment with IGROV1 ovarian and in the experiment on SNB-75 CNS was above 100 µM each time. For the same molecule, the TGI in the experiment on COLO 205 colon, in the experiment with NCI-H226 lung and in the experiment on EKVX NSCLC was above 100 µM in each case.
With `NNC(=S)Nc1cccc(Cl)c1`, the TGI in the experiment with SK-MEL-5 melanoma, in the experiment with MDA-MB-435, with MALME-3M melanoma, in the experiment with A549 NSCLC, with IGROV1 ovarian and with SNB-75 CNS was above 100 µM in each case. The TGI in the experiment on COLO 205 colon, in the experiment with EKVX NSCLC and with NCI-H522 lung was above 100 µM each time.

Values taken from PubChem BioAssay (NCI).
